Read-outs that look alike come from different tables or passages of the source.
Experiments:
Gram-positive bacteria = experiment: Clinical and microbiological efficacy evaluation of TEI treatment; type: in vivo, human; conditions: for Eradication rate of Gram-positive bacteria: eradication or presumed eradication
Procedure: According to the guiding principles of Clinical Trial Technology of antibacterial agents (2014 edition) ([Writing Group of Guidance for Clinical Trials of Antibacterial Drugs, 2014]), the judgment on efficacy evaluation includes clinical efficacy and microbiological efficacy. Clinical efficacy was evaluated after 7–14 days of medication. Clinical efficacy was evaluated in terms of clinical cure and clinical failure. Clinical cure is defined as the complete resolution or significant improvement of pretreatment infection signs and symptoms such that no additional antimicrobial therapy is needed. Clinical failure is defined as no apparent response or an incomplete response that needs additional antibiotic therapy for infections. The microbiological efficacy was evaluated as eradication, presumed eradication, no eradication, and presumed no eradication. Microbiological success was defined as eradication or presumed eradication of Gram-positive bacteria ([Writing Group of Guidance for Clinical Trials of Anti-bacterial Drugs, 2014]). The primary outcomes were clinical cure and microbiological success rates at the end of treatment (EOT).
Univariate and multivariate logistic regression analyses were used to select the covariables of the regression model. We established the regression model for predicting the factors influencing the eradication of Gram-positive bacteria. In univariate analysis, the χ^2 test or the Fisher exact test was used to compare the categorical variables. Continuous variables were compared by using the Mann–Whitney U test. Covariates with p values <0.1 were included in the multivariate logistic regression analysis (backward procedure, based on the p-value of the predictor removed) ([Hammitt et al., 2019]). Multivariate logistic regression analysis was used to screen for independent risk factors. SPSS software automatically screened out the independent variables when the optimal balance was reached between the fitting degrees of the prediction model.
Independent risk factor variables were used to establish regression equations and calculate prediction probabilities. The receiver operating characteristic (ROC) curves of multivariate factors were drawn; the area under the curve (AUC), cutoff point, Youden index, sensitivity, and specificity were used to evaluate their predictive value for predicting the factors influencing the eradication of Gram-positive bacteria.

[1] = Excerpt: Patients’ data were obtained from the inpatients’ medical database.

Q: What does the source list for Teicoplanin?
A: Cases of presumed eradication of Gram-positive bacteria (Gram-positive bacteria; CRRT group): 4 cases; Clinical cure rate (Gram-positive bacteria; CRRT group (n = 40)): 67.5%; Eradication rate of Gram-positive bacteria (Gram-positive bacteria; CRRT group): 77.5%; Clinical cure rate (Gram-positive bacteria; non-CRRT group (n = 66)): 72.7%; Eradication rate of Gram-positive bacteria (Gram-positive bacteria; non-CRRT group): 81.8%; 28-day hospital mortality rate ([1]; CRRT group): 22.5%; 28-day hospital mortality rate ([1]; non-CRRT group): 15.2%
